Measured values as given in patent US5466691A, “Thiophene compound” (Yoshitomi Pharmaceutical Industries, Ltd., priority 1991, dated 1995).
Like-named read-outs stand apart in the source and are kept apart here.

Key:
[1] = target: T1, dopamine 2 (D2) receptor (Rattus norvegicus, UniProt P61169); test: Affinity for dopamine 2 receptor ([3H]spiperone binding, synaptosome fraction of corpus striatum); set-up: species or system Wistar rat; settings: tritiated spiperone 0.2 nM, 37° C., 20 minutes, read-out: binding D2, inhibition constant (Ki value)
T1 construct: A synaptosome fraction was separated from corpus striatum; from tissue; host or cells: corpus striatum of Wistar rat, synaptosome fraction
T1 sequence (P61169 whole entry): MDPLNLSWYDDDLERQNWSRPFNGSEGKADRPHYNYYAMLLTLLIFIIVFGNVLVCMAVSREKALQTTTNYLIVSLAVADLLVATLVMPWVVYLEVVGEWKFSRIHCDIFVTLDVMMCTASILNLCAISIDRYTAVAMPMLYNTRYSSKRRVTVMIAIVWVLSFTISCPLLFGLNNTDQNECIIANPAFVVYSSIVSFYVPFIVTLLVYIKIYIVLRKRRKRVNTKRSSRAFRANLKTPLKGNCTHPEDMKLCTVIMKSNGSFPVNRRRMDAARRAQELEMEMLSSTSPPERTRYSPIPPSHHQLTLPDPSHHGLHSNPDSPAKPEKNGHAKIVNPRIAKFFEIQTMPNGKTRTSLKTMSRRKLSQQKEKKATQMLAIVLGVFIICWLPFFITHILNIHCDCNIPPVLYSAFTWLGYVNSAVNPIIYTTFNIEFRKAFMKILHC
Method: Experiment Example 1: Affinity for dopamine 2 receptor
A specific binding of dopamine 2 (D2) receptor was tested according to the method described in Eur. J. Pharmacol. 46, 377 (1977).
A synaptosome fraction was separated from corpus striatum of 9-10 weeks old Wistar rat, and suspended in 50 mM Tris-HCl buffer (pH 7.1) containing 120 mM sodium chloride, 5 mM potassium chloride, 2 mM calcium chloride, 1 mM magnesium chloride, 10 μM pargyline and 0.1% ascorbic acid for use in the test.
The test compound at several concentrations and tritiated spiperone (final concentration 0.2 nM) were added to the synaptosome suspension, and each mixture was reacted at 37° C. for 20 minutes. After the reaction, the reaction mixture was filtered with suction through a Whatman GF/B glass filter. The filter was washed with 50 mM Tris-HCl buffer (pH 7.7), and the radioactivity of the filter was measured by a liquid scintillation counter. Non-specific binding was determined in the presence of 10^-4 M(±)-sulpiride. The concentration necessary for 50% inhibition (IC50) was determined on a graph, and inhibition constant (Ki value) was calculated.

[2] = target: T2, serotonin 1A (5-HT1A) receptor (Rattus norvegicus, UniProt P19327); test: Affinity for serotonin 1A receptor ([3H]8-OH-DPAT binding, crude synaptosome fraction of hippocampus); settings: tritiated 8-OH-DPAT 0.2 nM, pH 7.4, 37° C., 12 minutes, read-out: binding 5-HT1A, inhibition constant (Ki value)
T2 construct: A crude synaptosome fraction was separated from hippocampus; from tissue; host or cells: hippocampus of Wistar rat, crude synaptosome fraction
T2 sequence (P19327 1-422): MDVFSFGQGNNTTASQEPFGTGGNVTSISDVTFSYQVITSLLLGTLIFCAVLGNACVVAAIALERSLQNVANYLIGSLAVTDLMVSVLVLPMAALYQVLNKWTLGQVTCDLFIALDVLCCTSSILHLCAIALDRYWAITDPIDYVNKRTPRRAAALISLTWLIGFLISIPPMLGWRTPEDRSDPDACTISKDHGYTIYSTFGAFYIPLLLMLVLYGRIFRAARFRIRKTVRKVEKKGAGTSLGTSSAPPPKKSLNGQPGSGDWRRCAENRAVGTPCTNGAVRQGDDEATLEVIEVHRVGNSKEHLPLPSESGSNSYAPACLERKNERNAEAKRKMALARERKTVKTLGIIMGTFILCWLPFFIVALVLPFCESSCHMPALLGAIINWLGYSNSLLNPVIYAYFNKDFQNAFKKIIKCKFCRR
Method: Experiment Example 2: Affinity for serotonin 1A receptor
A specific binding of serotonin 1A (5-HT1A) receptor was tested according to the method described in J. Neurochem. 44, 1685 (1985).
A crude synaptosome fraction was separated from hippocampus of 9-10 weeks old Nistar rat, and suspended in 50 mM Tris-HCl buffer (pH 7.4) containing 1 mM manganese chloride for use in the test. The test compound at several concentrations and tritiated 8-hydroxy-2-dipropylaminotctralin (8-OH-DPAT, final concentration 0.2 nM) were added to the synaptosome suspension, and each mixture was reacted at 37° C. for 12 minutes. After the reaction, the reaction mixture was filtered with suction through a Whatman GF/B glass filter. The filter was washed with 50 mM Tris-HCl buffer (pH 7.7), and the radioactivity of the filter was measured by a liquid scintillation counter. Non-specific binding was determined in the presence of 10^-5 M serotonin (5HT). The concentration necessary for 50% inhibition (IC50) was determined on a graph, and inhibition constant (Ki value) was calculated.

[3] = target: T3, serotonin 2 (5-HT2) receptor (Rattus norvegicus, UniProt P14842); test: Affinity for serotonin 2 receptor ([3H]ketanserin binding, crude synaptosome fraction of hippocampus); set-up: species or system Wistar rat; settings: tritiated ketanserin 0.2 nM, pH 7.7, 37° C., 20 minutes, read-out: binding 5-HT2, inhibition constant (Ki value)
T3 construct: A crude synaptosome fraction was separated from hippocampus; from tissue; host or cells: hippocampus of Wistar rat, crude synaptosome fraction
T3 sequence (P14842 whole entry): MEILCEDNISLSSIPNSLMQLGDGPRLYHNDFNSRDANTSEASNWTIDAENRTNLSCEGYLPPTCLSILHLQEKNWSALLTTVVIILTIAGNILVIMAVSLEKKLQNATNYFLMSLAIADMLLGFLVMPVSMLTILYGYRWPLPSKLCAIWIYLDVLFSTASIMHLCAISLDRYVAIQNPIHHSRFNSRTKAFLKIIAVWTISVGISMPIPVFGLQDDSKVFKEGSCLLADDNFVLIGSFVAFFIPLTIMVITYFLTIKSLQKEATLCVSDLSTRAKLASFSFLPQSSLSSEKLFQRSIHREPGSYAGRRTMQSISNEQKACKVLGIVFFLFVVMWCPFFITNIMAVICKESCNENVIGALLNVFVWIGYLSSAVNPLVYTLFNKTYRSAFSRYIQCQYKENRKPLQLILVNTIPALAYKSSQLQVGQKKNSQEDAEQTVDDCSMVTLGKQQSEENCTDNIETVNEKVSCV
Method: Experiment Example 3: Affinity for serotonin 2 receptor
A specific binding of serotonin 2 (5-HT2) receptor was tested according to the method described in Mol. Pharmacol. 21, 301 (1981).
A crude synaptosome fraction was separated from hippocampus of 9-10 weeks old Wistar rat, and suspended in 50 mM Tris-HCl buffer (pH 7.7) for use in the test. The test compound at several concentrations and tritiated ketanserin (final concentration 0.2 nM) were added to the synaptosome suspension, and each mixture was incubated at 37° C. for 20 minutes. After the incubation, the mixture was filtered with suction through a Whatman GF/B glass filter. The filter was washed with 50 mM Tris-HCl buffer (plt 7.7), and the radioactivity of the filter was measured by a liquid scintillation counter. Non-specific binding was determined in the presence of 10^-5 M mianserin. The concentration necessary for 50% inhibition (IC50) was determined on a graph, and inhibition constant (Ki value) was calculated.

[4] = test system: apomorphine; test: Anti-apomorphine action (mouse); assay type: in vivo; settings: 1 h before apomorphine, read-out: anti-apomorphine effect ED50
Method: The test compound was orally administered to the mice, and 60 minutes later, 0.5 mg/kg of apomorphine hydrochloride was subcutaneously administered. The movement for 20 minutes from immediately after the administration was measured using Balimex (Columbus, USA).

[5] = test system: ddY mice; test: Acute toxicity; assay type: in vivo; settings: 5 days

| Compound | Ki [1] | Ki [2] | Ki [3] | ED50 ([4]; po) | ED50 ([4]; male dd mice, oral, 60 minutes before 0.5 mg/kg s.c. apomorphine hydrochloride, movement for 20 minutes) | death ([5]; 100 mg/kg intraperitoneally, 5 male ddY mice) | death ([5]; 300 mg/kg orally) |
| --- | --- | --- | --- | --- | --- | --- | --- |
| CC(=O)c1ccc(SCCCN2CCC(c3noc4cc(F)ccc34)CC2)s1 [Example 36, 3-(1-(3-((5-acctyl-2-thienyl)thio)propyl)piperidin-4-yl)-6-fluoro-1,2-benzisoxazole] | 0.61 nM | 0.75 nM | 1.3 nM | 3.4 mg/kg |  |  |  |
| CC(=O)NCc1ccc(SCCCN2CCC(c3noc4cc(F)ccc34)CC2)s1 [Example 93, 3-(1-(3-((5-acetylaminomethyl-2-thienyl)thio)propyl)-piperidin-4-yl)-6-fluoro-1,2-benzisoxazole] | 0.8 nM | 26 nM | 0.79 nM | 2.9 mg/kg |  |  |  |
| CC(=O)NCc1ccc(CCN2CCC(c3noc4cc(F)ccc34)CC2)s1 [Example 119, 3-(1-(2-(5-acetylaminomethyl-2-thicnyl)ethyl)piperidin-4-yl)-6-fluoro-1,2-benzisoxazole] | 3.8 nM | 14 nM | 0.65 nM | 0.16 mg/kg |  |  |  |
| CC(=O)Nc1ccc(SCCCN2CCC(c3noc4cc(F)ccc34)CC2)s1 [Example 40, 3-(1-(3-((5-acetylamino-2-thienyl)thio)propyl)piperidin-4-yl) -6-fluoro-1,2-benzisoxazole] | 0.71 nM | 0.35 nM | 0.45 nM | 1 mg/kg |  |  |  |
| CC(=O)NCc1ccc(CCCCN2CCC(c3noc4cc(F)ccc34)CC2)s1 [Example 108, 3-(1-(4-(5-acetylaminomethyl-2-thienyl)butyl)piperidin-4-yl) -6-fluoro-1,2-benzisoxazole] | 2 nM | 56 nM | 2.1 nM | 0.41 mg/kg |  |  |  |
| CC(=O)NCc1cc(CCN2CCC(c3noc4cc(F)ccc34)CC2)c(C)s1 [Example 155, 3-(1-(2-(5-acetylaminomethyl-2-methyl-3-thienyl)ethyl)-piperidin-4-yl)-6-fluoro-1,2-benzisoxazole] | 1.4 nM | > 100 nM | 0.37 nM | 1.2 mg/kg |  |  |  |
| CC(=O)NCc1sc(CCN2CCC(c3noc4cc(F)ccc34)CC2)cc1C [Example 151, 3-(1-(2-(5-acetylaminomethyl-4-methyl-2-thienyl)ethyl)-piperadin-4-yl)-6-fluoro-1,2-benzisoxazole] | 3.8 nM | 15 nM | 0.099 nM |  | 0.76 mg/kg |  |  |
| CC(=O)NCCc1sc(CCN2CCC(c3noc4cc(F)ccc34)CC2)cc1Br [Example 159, 3-(1-(2-(5-(2-acetylaminoethyl)-4-bromo-2-thienyl)ethyl)-piperidin-4-yl) -6-fluoro-1,2-benzisoxazole] | 0.5 nM | 12 nM | 0.047 nM | 0.53 mg/kg |  |  |  |
| CC(=O)c1ccc(SCCCN2CCN(c3cccc(C)c3C)CC2)s1 [Example 4, 1(3-((5-acetyl-2-thienyl)thio)propyl)-4-(2,3-dimethylphenyl)piperazine] |  |  |  |  |  | No death was observed | no death was observed |
| NCc1ccc(CCCCN2CCC(c3noc4cc(F)ccc34)CC2)s1 [Example 165, 3-(1-(4-(5-aminomethyl-2-thienyl)butyl)piperidin-4-yl)-6-fluoro-1,2-benzisoxazole] | 0.69 nM | 1.7 nM | 1.3 nM | 0.24 mg/kg |  |  |  |
| CC(=O)NCCc1ccc(CCN2CCC(c3noc4cc(F)ccc34)CC2)s1 [Example 158, 3-(1-(2-(5-(2-acetylaminoethyl)-2-thienyl)ethyl)piperidin-4-yl) -6-fluoro-1,2-benzisoxazole] | 0.94 nM | 16 nM | 0.13 nM | 0.14 mg/kg |  |  |  |
| CC(=O)c1ccc(SCCCN2CCN(c3nsc4ccccc34)CC2)s1 [Example 21, 3-(4-(3-((5-acctyl-2-thicnyl)thio)propyl)-l-piperadinyl)1,2-benzisothiazole] | 1.3 nM | 0.12 nM | 0.59 nM | 35 mg/kg |  |  |  |
| CC(=O)NCc1ccc(C(=O)CCCN2CCC(c3noc4cc(F)ccc34)CC2)s1 [Example 95, 3-(1-(4-(5-acetylaminomethyl-2-thienyl)-4-oxobutyl)piperidin-4-yl)-6-fluoro-1,2-benzisoxazole] | 2.5 nM | 140 nM | 0.059 nM | 2.6 mg/kg |  |  |  |
